From publication PMC12481569, “Novltex: A New Class of Antibiotics with Potent Activity against Multidrug-Resistant Bacterial Pathogens–Design, Synthesis, and Biological Evaluation” (Journal of Medicinal Chemistry, 2025)
≈ marks a conversion by molar mass, not a printed value. Where “and” joins values, the source holds several entries; their conditions need not be identical. Equal values may be shown once. Positions of bridges follow the written chain, without caps; N, C: chain ends. Non-standard residues stand in square brackets, D forms with d. Residues, ends and D or L forms follow the SMILES beside them. d(aIle) = CC[C@H](C)[C@@H](N)C(=O)O; dChg = N[C@@H](C(=O)O)C1CCCCC1

What was measured:
Assay in all cases: microbe, parasite or virus in culture
MRSA ATCC 33591 = type: cell-based, Staphylococcus aureus; details: for MIC against MRSA ATCC 33591: 24 h, two independent duplicates; for fold decrease in antibacterial activity (MIC) compared to analogue 12: MRSA ATCC 33591
Method: (§1) MICs were performed as previously reported 4. For MIC testing all peptides were dissolved in DMSO.
Bacterial cultures were grown overnight on Mueller-Hinton Agar (MHA) plates and adjusted to a final inoculum of 10^5 – 10^6 CFU/mL. 100 µl of ino culum in Meuller -Hinton broth (MHB) was mixed with equal volume of peptides (dissolved in MHB) at 2x their concentration in a 96 well plate . For daptomycin MIC determination, the same protocol was followed with the addition of 50 mg/L calcium chloride to the medium. MIC values were determined in the media contain ing polysorbate 80 (0.002%, v/v) to prevent non -specific adsorption of the peptides to plastic surfaces. The final peptides concentrations ranged from 0.0625 – 32 µg/mL. The 96 well plates were then incubated at 37 °C for 24 h. All the experiments were performed in two independent duplicates and the MIC was determined as the lowest concentration in which no visible growth was observed. […]

[1] = tested on: Multidrug-Resistant (MDR) E. faecium; details: MHB, 0.002% polysorbate 80, 37 °C, 24 h, daptomycin with 50 mg/L calcium chloride
Method: (§2) We further evaluated analogue 12 against multidrug-resistant (MDR) strains of S. aureus (acquired from the NARSA collection) and MDR E. faecium (acquired from International Health Management Associates, IHMA, Europe Sarl), comparing its activity to various classes of clinically used antibiotics (Table ).
as §1
(§3) Bacterial cultures were grown overnight on Mueller-Hinton Agar (MHA) plates and adjusted to a final inoculum of 10^5 – 10^6 CFU/mL. 100 µl of ino culum in Meuller -Hinton broth (MHB) was mixed with equal volume of peptides (dissolved in MHB) at 2x their concentration in a 96 well plate . For daptomycin MIC determination, the same protocol was followed with the addition of 50 mg/L calcium chloride to the medium. MIC values were determined in the media contain ing polysorbate 80 (0.002%, v/v) to prevent non -specific adsorption of the peptides to plastic surfaces. The final peptides concentrations ranged from 0.0625 – 32 µg/mL. The 96 well plates were then incubated at 37 °C for 24 h. All the experiments were performed in two independent duplicates and the MIC was determined as the lowest concentration in which no visible growth was observed.
(§4) Antibiotics MIC break points ( µg/mL)
(§5) Table. S4: Susceptibility cut-off values (MIC breakpoints) for various clinical antibiotics. […]

[2] = tested on: Multidrug-Resistant (MDR) S. aureus; details: MHB, 0.002% polysorbate 80, 37 °C, 24 h, daptomycin with 50 mg/L calcium chloride
Method: as §2, §1, §3, §4, §5

[3] = broth dilution in MHB with 0.002% v/v polysorbate 80, inoculum 10^5-10^6 CFU/mL, 37 °C, no visible growth, Table 1
[4] = Table 2, MHB with 0.002% polysorbate 80, 37 °C

| Compound | MIC against MRSA ATCC 33591 (MRSA ATCC 33591; [3]) | MIC against MRSA ATCC 33591 (MRSA ATCC 33591; [4]) | also measured |
| --- | --- | --- | --- |
| CC(C)C[C@@H]1NC(=O)[C@H](C)NC(=O)[C@H](NC(=O)[C@H](CO)NC(=O)[C@H](CCCCN)NC(=O)[C@@H](CC(C)C)NC(=O)[C@H](N)Cc2ccccc2)[C@H](C)OC(=O)[C@H](CC(C)C)NC1=O [analogue 7] | > 32 µg/mL and 32 µg/mL |  |  |
| CC(C)C[C@@H]1NC(=O)[C@H](C)NC(=O)[C@H](NC(=O)[C@H](CO)NC(=O)[C@H](CCCCN)NC(=O)[C@H](CC(C)C)NC(=O)[C@@H](N)Cc2ccccc2)[C@H](C)OC(=O)[C@H](CC(C)C)NC1=O [analogue 8] | > 32 µg/mL |  |  |
| CC(C)C[C@@H]1NC(=O)[C@H](C)NC(=O)[C@H](NC(=O)[C@@H](CO)NC(=O)[C@@H](CCCCN)NC(=O)[C@@H](CC(C)C)NC(=O)[C@H](N)Cc2ccccc2)[C@H](C)OC(=O)[C@H](CC(C)C)NC1=O [analogue 9] | 16 µg/mL (≈ 18.3 µM) |  |  |
| CC[C@H](C)[C@@H]1NC(=O)[C@H](CC(C)C)NC(=O)[C@H](C)NC(=O)[C@H](NC(=O)[C@H](CO)NC(=O)[C@@H](CCCCN)NC(=O)[C@@H](CC(C)C)NC(=O)[C@@H](N)Cc2ccccc2)[C@H](C)OC1=O [analogue 10] (H-F[dL][dK]S[dT]ALI; ester 5-C) | 8 µg/mL (≈ 9.15 µM) |  |  |
| CC(C)C[C@@H]1NC(=O)[C@H](C)NC(=O)[C@H](NC(=O)[C@H](CO)NC(=O)[C@@H](CCCCN)NC(=O)[C@H](NC(=O)[C@@H](N)Cc2ccccc2)C2CCCCC2)[C@H](C)OC(=O)[C@H](CC(C)C)NC1=O [analogue 11, Leu2Chg–Novltex] (H-F[dChg][dK]S[dT]ALL; ester 5-C) |  | 8 µg/mL (≈ 8.89 µM) | fold decrease in antibacterial activity (MIC) compared to analogue 12 (MRSA ATCC 33591): 32 fold |
| CC(C)C[C@@H]1NC(=O)[C@H](C)NC(=O)[C@H](NC(=O)[C@H](CO)NC(=O)[C@@H](CCCCN)NC(=O)[C@@H](Cc2c[nH]c3ccccc23)NC(=O)[C@@H](N)Cc2ccccc2)[C@H](C)OC(=O)[C@H](CC(C)C)NC1=O [analogue 13, Leu2Trp–Novltex] (H-F[dW][dK]S[dT]ALL; ester 5-C) |  | > 32 µg/mL |  |
| CC(C)C[C@@H]1NC(=O)[C@H](C)NC(=O)[C@H](NC(=O)[C@H](CO)NC(=O)[C@@H](CCCCN)NC(=O)[C@@H](Cc2ccccc2)NC(=O)[C@@H](N)Cc2ccccc2)[C@H](C)OC(=O)[C@H](CC(C)C)NC1=O [analogue 14, Leu2Phe–Novltex] (H-F[dF][dK]S[dT]ALL; ester 5-C) |  | 8 µg/mL (≈ 8.81 µM) |  |
| CC(C)C[C@@H]1NC(=O)[C@H](C)NC(=O)[C@H](NC(=O)[C@H](CO)NC(=O)[C@@H](CCCCN)NC(=O)[C@@H](Cc2ccc(O)cc2)NC(=O)[C@@H](N)Cc2ccccc2)[C@H](C)OC(=O)[C@H](CC(C)C)NC1=O [analogue 15, Leu2Tyr–Novltex] (H-F[dY][dK]S[dT]ALL; ester 5-C) |  | >32 µg/mL |  |
| CC[C@H](C)[C@@H](NC(=O)[C@@H](N)Cc1ccccc1)C(=O)N[C@H](CCCCN)C(=O)N[C@@H](CO)C(=O)N[C@H]1C(=O)N[C@@H](C)C(=O)N[C@@H](CC(C)C)C(=O)N[C@@H](CC(C)C)C(=O)O[C@H]1C [analogue 16, Leu2 D-allo-Ile–Novltex] (H-F[d(aIle)][dK]S[dT]ALL; ester 5-C) |  | 16 µg/mL (≈ 18.3 µM) | fold decrease in antibacterial activity (MIC) compared to analogue 12 (MRSA ATCC 33591): 64 fold |
| Clovibactin |  |  | MIC, Enterococcus faecium 1563254 ([1]; MDR clinical isolate 1563254): 0.063 µg/mL; MIC, Enterococcus faecium 1581582 ([1]; MDR clinical isolate 1581582): 0.25 µg/mL; MIC, Enterococcus faecium 1766686 ([1]; MDR clinical isolate 1766686): 0.25 µg/mL; MIC, Staphylococcus aureus NR 45914 ([2]; MDR strain NR 45914): 0.063 µg/mL; MIC, Staphylococcus aureus NR 45926 ([2]; MDR strain NR 45926): 0.063 µg/mL; MIC, Staphylococcus aureus NR 45930 ([2]; MDR strain NR 45930): 0.25 µg/mL; MIC, Staphylococcus aureus NR 46062 ([2]; MDR strain NR 46062): 0.063 µg/mL |
